The results in this text go back to patent US8440646B1 (priority 2006, dated 2013).

Values after ≈ are worked out from the molar mass of the structure shown. Like-named read-outs stand apart in the source and are kept apart here.

Assay [1] relates to S. aureus MRSA5. The assay can be described thus: microbe, parasite or virus in culture. The format is cell-based. As to conditions: Staphylococcus aureus.
The test system of assay [2] is E. faecium 494. The assay can be described thus: microbe, parasite or virus in culture. As to conditions: Enterococcus faecium. The format is cell-based.
In assay [3] the test system is S. pneumoniae 700905. The assay can be described thus: microbe, parasite or virus in culture. The format is cell-based. As to conditions: Streptococcus pneumoniae.
The test system of assay [4] is E. faecalis 29212. The assay can be described thus: microbe, parasite or virus in culture. The format is cell-based. Conditions: Enterococcus faecalis.
Assay [5] concerns Peptidoglycan synthesis of S. aureus RN450. As to the kind of experiment: microbe, parasite or virus in culture. The format is cell-based.
Assay [6] concerns Protein synthesis of S. aureus RN450. As to the kind of experiment: microbe, parasite or virus in culture. The format is cell-based. Conditions: Staphylococcus aureus.
Assay [7] concerns S. aureus RN450. As to the kind of experiment: microbe, parasite or virus in culture. The format is cell-based. As to conditions: Staphylococcus aureus.
Assay [8] has as its system S. pneumoniae 157E. As to the kind of experiment: animal or person. The format is in vivo, mice. As to conditions: for responders at 5 mg/kg / responders at 10 mg/kg: Streptococcus pneumoniae, 157E, in Mus musculus, 48 h, read-out: % survival; for efficacy in words: mouse, in vivo.

`CCCCN(CCCC)Cc1cc(N(C)C)c2c(c1O)C(=O)C1=C(O)[C@]3(O)C(=O)C(C(N)=O)=C(O)[C@@H](N(C)C)[C@@H]3C[C@@H]1C2` [AH]: the MIC was 1 µg/mL (≈ 1.67 µM) in assay [1], 0.25 µg/mL (≈ 0.418 µM) in assay [2], 0.06 µg/mL (≈ 0.1 µM) in assay [3] and 0.25 µg/mL (≈ 0.418 µM) in assay [4].

As to `CO/N=C/c1cc(-c2ccc(O)c3c2C[C@H]2C[C@H]4[C@H](N(C)C)C(O)=C(C(N)=O)C(=O)[C@@]4(O)C(O)=C2C3=O)ccc1OC` [A], the MIC in assay [1] worked out at 1 µg/mL (≈ 1.73 µM); in assay [2] it was 1 µg/mL (≈ 1.73 µM); in assay [3] it was 0.25 µg/mL (≈ 0.433 µM); in assay [4], 1 µg/mL (≈ 1.73 µM); in assay [7], 0.25 µg/mL (≈ 0.433 µM). Also, the “effect on peptidoglycan biosynthesis in words” value in assay [5] is recorded as “affect peptidoglycan biosynthesis”. The IC50 (usually the midpoint of a concentration-inhibition curve) in assay [5] (Staphylococcus aureus, read-out: Peptidoglycan synthesis IC50) is 2.1 µg/mL (≈ 3.64 µM); in assay [6] (read-out: Protein synthesis IC50), 1.9 µg/mL (≈ 3.29 µM). The IC90 (as a rule, the concentration needed for an effect of 90%) in assay [5] (Staphylococcus aureus, read-out: Peptidoglycan synthesis IC90) is 3.8 µg/mL (≈ 6.58 µM); in assay [6] (read-out: Protein synthesis IC90), 5 µg/mL (≈ 8.66 µM).

Take `CN(C)c1cc(CNC2CCCCC2)c(O)c2c1C[C@H]1C[C@H]3[C@H](N(C)C)C(O)=C(C(N)=O)C(=O)[C@@]3(O)C(O)=C1C2=O` [B]: the responders at 5 mg/kg in assay [8] (po) was 40%; in assay [8] (sc), 100%. Moreover, the efficacy in words result in assay [8] is on record as “efficacious”. Besides, the MIC was 1 µg/mL (≈ 1.76 µM) in assay [1], 1 µg/mL (≈ 1.76 µM) in assay [2], 0.5 µg/mL (≈ 0.879 µM) in assay [3] and 1 µg/mL (≈ 1.76 µM) in assay [4].

As to `CC(CF)N(C)Cc1cc(N(C)C)c2c(c1O)C(=O)C1=C(O)[C@]3(O)C(=O)C(C(N)=O)=C(O)[C@@H](N(C)C)[C@@H]3C[C@@H]1C2` (stereo partly shown) [Compound C], the responders at 10 mg/kg in assay [8] (po) came out at 60%. Moreover, the responders at 5 mg/kg in assay [8] (sc) came to 100%. For the same molecule, the efficacy in words entry in assay [8] is “efficacious”. Besides, the MIC is 1 µg/mL (≈ 1.78 µM) in assay [1], 0.25 µg/mL (≈ 0.446 µM) in assay [2], 0.25 µg/mL (≈ 0.446 µM) in assay [3] and 0.5 µg/mL (≈ 0.892 µM) in assay [4].

As to `CC1CN(C2CCN(Cc3cc(N(C)C)c4c(c3O)C(=O)C3=C(O)[C@]5(O)C(=O)C(C(N)=O)=C(O)[C@@H](N(C)C)[C@@H]5C[C@@H]3C4)CC2)CC(C)O1` (stereo partly shown) [Compound R], the MIC in assay [1] is 1 µg/mL (≈ 1.5 µM); in assay [2] it was 1 µg/mL (≈ 1.5 µM); in assay [3] it was 0.13 µg/mL (≈ 0.195 µM); in assay [4], 2 µg/mL (≈ 2.99 µM).

Turning to `COC(=O)c1ccc(CNCc2cc(N(C)C)c3c(c2O)C(=O)C2=C(O)[C@]4(O)C(=O)C(C(N)=O)=C(O)[C@H](N(C)C)[C@@H]4C[C@@H]2C3)cc1` [D], in assay [8] (po), the responders at 10 mg/kg was determined as 0%. For the same molecule, in assay [8] (sc), the responders at 5 mg/kg came out at 0%. Moreover, the MIC in assay [1] amounted to 1 µg/mL (≈ 1.58 µM); in assay [2] it was 1 µg/mL (≈ 1.58 µM); in assay [3], 0.25 µg/mL (≈ 0.394 µM); in assay [4] it was 0.25 µg/mL (≈ 0.394 µM).

Take `C=CCN(C)Cc1cc(C(C)C)c2c(c1O)C(=O)C1=C(O)[C@]3(O)C(=O)C(C(N)=O)=C(O)[C@@H](N(C)C)[C@@H]3C[C@@H]1C2` [G]: the MIC came to 0.5 µg/mL (≈ 0.927 µM) in assay [1], 1 µg/mL (≈ 1.85 µM) in assay [2], 0.06 µg/mL (≈ 0.111 µM) in assay [3] and 0.5 µg/mL (≈ 0.927 µM) in assay [4].

In the case of `CN(C)[C@@H]1C(O)=C(C(N)=O)C(=O)[C@@]2(O)C(O)=C3C(=O)c4c(O)c(CNCCC(F)(F)F)cc(-c5ncccn5)c4C[C@H]3C[C@@H]12` [J], the MIC in assay [1] is 0.5 µg/mL (≈ 0.81 µM); in assay [2] it was 1 µg/mL (≈ 1.62 µM); in assay [3], 0.06 µg/mL (≈ 0.0972 µM); in assay [4], 0.25 µg/mL (≈ 0.405 µM).

Consider `CN(Cc1ccccc1F)Cc1cc(N(C)C)c2c(c1O)C(=O)C1=C(O)[C@]3(O)C(=O)C(C(N)=O)=C(O)[C@@H](N(C)C)[C@@H]3C[C@@H]1C2` [K], for which the MIC in assay [1] was 0.5 µg/mL (≈ 0.821 µM); in assay [2], 1 µg/mL (≈ 1.64 µM); in assay [3], 0.25 µg/mL (≈ 0.411 µM); in assay [4], 1 µg/mL (≈ 1.64 µM).

As for `CN(CCC(F)(F)F)Cc1cc(N(C)C)c2c(c1O)C(=O)C1=C(O)[C@]3(O)C(=O)C(C(N)=O)=C(O)[C@@H](N(C)C)[C@@H]3C[C@@H]1C2` [L], the MIC in assay [1] stood at 0.5 µg/mL (≈ 0.838 µM); in assay [2], 1 µg/mL (≈ 1.68 µM); in assay [3], 0.75 µg/mL (≈ 1.26 µM); in assay [4], 1 µg/mL (≈ 1.68 µM).

`CCN(CCCC(F)(F)F)Cc1cc(N(C)C)c2c(c1O)C(=O)C1=C(O)[C@]3(O)C(=O)C(C(N)=O)=C(O)[C@@H](N(C)C)[C@@H]3C[C@@H]1C2` [N]: the MIC is 1 µg/mL (≈ 1.6 µM) in assay [1], 0.5 µg/mL (≈ 0.8 µM) in assay [2], 0.13 µg/mL (≈ 0.208 µM) in assay [3] and 1 µg/mL (≈ 1.6 µM) in assay [4].
